The record followed here is patent US20080280837A1, “Biologically Active Compounds with Anti-Angiogenic Properties” (priority 2004, published 2008).

The structures appear in SMILES notation.

The experiment concerns the target T1, Human SST5 somatostatin receptor (SSTR5) (Homo sapiens, UniProt P35346).
T1 construct: expressed in transfected cells; host or cells: HEK-293 EBNA
Description: Filter plate assay for SST5 receptor, displacement of [125I]SST-14. The class given is binding. As to the method:
Receptor membrane preparations containing the desired cloned receptor (for example cloned human somatostatin receptor subtype 5, SSTR5) and radio-labeled ligand (for example 3-[^125I]iodotyrosyl^11 Somatostatin-14)) were diluted at the concentration required for testing and according to the specific parameters associated with the selected receptor-ligand combination, including receptor Bmax, ligand Kd and any other parameters necessary to optimize the experimental conditions. When tested for competition activity to the reference ligand, “compound 1” was mixed with membrane suspension and the radiolabeled reference ligand (with or without an excess of cold ligand to the receptor for determination of non-specific binding) and incubated at the temperature required by internal standard operating procedures. Following incubation, the binding reaction was stopped by the addition of ice-cold washing buffer and filtered on appropriate filters, which are then counted. Data analysis and curve-fitting was performed with XLfit (IDBS).
10 mM solutions of test compounds in 100% DMSO were prepared. ˜160 μl was used for each dilution (20 μl/well in triplicate).
A 1.25 mM assay stock was prepared by making a 1:8 dilution of the 10 mM solution. (To 30 μL of the 10 mM solution was added 210 μL milli-Q H2O. A 1:5 dilution series in milli-Q H2O was then prepared.
Assays were performed in triplicate at each concentration within the 1:5 dilution series: 250 μM, 50 μM, 10 μM, […], 0.4 μM, 0.08 μM, 0.016 μM, 0.0032 μM, etc. (for SST4 assay) and 125 μM, 10 μM, 2 μM, 1 μM, 0.5 μM, etc (for SST5 assay).
Human SST5 somatostatin receptor was transfected into HEK-293 EBNA cells. Membranes were suspended in assay buffer (50 mM Tris-HCl, 1 mM EGTA, 5 mM MgCl2, 10% sucrose, pH 7.5).
After thawing the frozen receptor preparation rapidly, receptors were diluted with binding buffer, homogenized, and kept on ice. • 1. Use Multiscreen glass fiber filter plates (Millipore, Cat No MAFCNOB10) precoated with o.5% PEI for ˜2 hr at 4° C. Before use add 200 μl/well assay buffer and filter using Multiscreen Separation System. • 2. Incubate 5.5 μg of membranes (40 μl of a 1:40 dilution), buffer and [^125I]SST-14 (4 nM, ˜80 000 cpm, 2000 Ci/mmol) in a total volume of 200 μl for 60 min at 25° C. […] Prepare serial dilutions (1:5) of compounds, as described above and instead of adding SST-14 in well, add 20 μl of compounds (Table 1). • 3. Filter using Multiscreen Separation System with 5×0.2 ml ice-cold Assay buffer. • 4. Remove the plastic underdrain and dry plate in oven for 1 hr at 40° C. • 5. Seal tape to the bottom of the plate. • 6. Add 50 μl/well scintillant (Supermix, Wallac, Cat No 1200-439). • 7. Seal and count in the BJET, program 2.
In primary screening experiments compounds were tested in duplicate for a particular concentration.

T1 sequence (P35346 whole entry): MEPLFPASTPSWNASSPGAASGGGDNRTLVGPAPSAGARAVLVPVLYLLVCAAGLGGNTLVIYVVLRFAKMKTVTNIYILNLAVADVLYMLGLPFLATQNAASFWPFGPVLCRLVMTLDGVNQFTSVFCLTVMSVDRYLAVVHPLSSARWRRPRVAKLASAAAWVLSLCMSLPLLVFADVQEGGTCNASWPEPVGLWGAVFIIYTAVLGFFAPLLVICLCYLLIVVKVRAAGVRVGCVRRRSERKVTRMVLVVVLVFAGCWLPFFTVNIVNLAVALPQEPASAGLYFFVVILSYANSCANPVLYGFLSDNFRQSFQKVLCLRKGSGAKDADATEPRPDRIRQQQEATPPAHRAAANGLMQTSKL

Turning to `COC[C@H]1OC(OCc2ccc(Cl)cc2)[C@H](NC(=O)CCCN)[C@@H](OCc2ccc3ccccc3c2)[C@@H]1O` (stereo partly drawn) [Compound 48], the “SSTR5 Inhib 0.5 uM % (inhibition of binding of SST-14 to SSTR5)” value (from here on “SSTR5 Inhib 0.5 uM %”) was 66% and the “SSTR5 Inhib 10 uM % (inhibition of binding of SST-14 to SSTR5)” value (shortened to “SSTR5 Inhib 10 uM %”) is given as 92%.

For `CSC1O[C@H](COCc2ccc(Cl)cc2)[C@@H](O)[C@@H](OCc2ccc3ccccc3c2)[C@H]1NC(=O)CCCNC(=N)N` (stereo partly drawn) [Compound 49], the “SSTR5 Inhib 0.5 uM %” value is given as 60% and the “SSTR5 Inhib 10 uM %” value came to 92%.

For `COC[C@H]1OC(OCc2ccc(Cl)cc2)[C@H](NC(=O)CCNC(=N)N)[C@H](OCc2ccc3ccccc3c2)[C@@H]1O` (stereo partly drawn) [Compound 50], the “SSTR5 Inhib 0.5 uM %” value worked out at 74% and the “SSTR5 Inhib 10 uM %” value is listed as 92%.

For the compound `COC1C(O)C(COCc2ccc3ccccc3c2)OC(OCc2ccc(Cl)cc2)C1NC(=O)C1CCCN1` (stereo not drawn) [Compound 51], the “SSTR5 Inhib 0.5 uM %” value was determined as 76% and the “SSTR5 Inhib 10 uM %” value came to 92%.

On to `COC[C@H]1OC(OCc2ccc3ccccc3c2)[C@H](NC(=O)CCNC(=N)N)[C@@H](OCc2ccc(-c3ccccc3)cc2)[C@@H]1O` (stereo partly drawn) [Compound 52], for which the “SSTR5 Inhib 0.5 uM %” value was found to be 69% and the “SSTR5 Inhib 10 uM %” value is 92%.

For `COC[C@H]1OC(OCc2ccccc2)[C@H](NC(=O)CCNC(=N)N)[C@H](OCc2ccc3ccccc3c2)[C@@H]1O` (stereo partly drawn) [Compound 53], the “SSTR5 Inhib 0.5 uM %” value turned out to be 58% and the “SSTR5 Inhib 10 uM %” value worked out at 91%.

Take `COC[C@H]1OC(OCc2ccccc2)[C@H](NC(=O)CCN)[C@H](OCc2ccc(-c3ccccc3)cc2)[C@@H]1O` (stereo partly drawn) [Compound 54]: the “SSTR5 Inhib 0.5 uM %” value was 60% and the “SSTR5 Inhib 10 uM %” value is listed as 91%.

For the compound `COC[C@H]1OC(OCc2ccc(-c3ccccc3)cc2)[C@H](NC(=O)CCCNC(=N)N)[C@@H](OCc2ccc(-c3ccccc3)cc2)[C@@H]1O` (stereo partly drawn) [Compound 55], the “SSTR5 Inhib 0.5 uM %” value was 71% and the “SSTR5 Inhib 10 uM %” value is given as 91%.

`COC[C@H]1OC(OCc2ccc(Cl)cc2)[C@H](NC(=O)CCCNC(=N)N)[C@@H](OCc2ccc(Cl)cc2)[C@@H]1O` (stereo partly drawn) [Compound 56]: the “SSTR5 Inhib 0.5 uM %” value was found to be 57% and the “SSTR5 Inhib 10 uM %” value turned out to be 91%.

With `COC[C@H]1OC(OCc2ccc3ccccc3c2)[C@H](NC(=O)CCNC(=N)N)[C@H](OCc2ccc3ccccc3c2)[C@@H]1O` (stereo partly drawn) [Compound 57], the “SSTR5 Inhib 0.5 uM %” value was found to be 64% and the “SSTR5 Inhib 10 uM %” value turned out to be 91%.

`COC[C@H]1OC(OCc2ccc(-c3ccccc3)cc2)[C@H](NC(=O)CCCNC(=N)N)[C@@H](OCc2ccc(-c3ccccc3)cc2)[C@@H]1O` (stereo partly drawn) [Compound 58]: the “SSTR5 Inhib 0.5 uM %” value is recorded as 65% and the “SSTR5 Inhib 10 uM %” value amounted to 91%.

Turning to `COC[C@H]1OC(OCc2ccccc2)[C@H](NC(=O)CCCN)[C@H](OCc2ccc(Cl)cc2)[C@@H]1O` (stereo partly drawn) [Compound 59], the “SSTR5 Inhib 0.5 uM %” value came to 66% and the “SSTR5 Inhib 10 uM %” value was 90%.

`COC[C@H]1OC(OCc2ccc3ccccc3c2)[C@H](NC(=O)CCCNC(=N)N)[C@H](OCc2ccc3ccccc3c2)[C@@H]1O` (stereo partly drawn) [Compound 60]: the “SSTR5 Inhib 0.5 uM %” value is reported as 57% and the “SSTR5 Inhib 10 uM %” value worked out at 90%.

Take `COC[C@H]1OC(OCc2ccc3ccccc3c2)[C@H](NC(=O)CCCN)[C@@H](OCc2ccc(Cl)cc2)[C@@H]1O` (stereo partly drawn) [Compound 61]: the “SSTR5 Inhib 0.5 uM %” value was determined as 61% and the “SSTR5 Inhib 10 uM %” value is listed as 90%.

For `COC[C@H]1OC(OCCc2ccccc2)[C@H](NC(=O)CCCNC(=N)N)[C@H](OCc2ccc(Cl)cc2)[C@@H]1O` (stereo partly drawn) [Compound 62], the “SSTR5 Inhib 0.5 uM %” value was found to be 61% and the “SSTR5 Inhib 10 uM %” value worked out at 90%.

Take `COC[C@H]1OC(OCc2ccc(-c3ccccc3)cc2)[C@H](NC(=O)CCCN)[C@@H](OCc2ccc(Cl)cc2)[C@@H]1O` (stereo partly drawn) [Compound 63]: the “SSTR5 Inhib 0.5 uM %” value was 50% and the “SSTR5 Inhib 10 uM %” value worked out at 90%.

Take `COC[C@H]1OC(OCc2ccc3ccccc3c2)[C@H](NC(=O)CCCNC(=N)N)[C@H](OCc2ccccc2)[C@@H]1O` (stereo partly drawn) [Compound 64]: the “SSTR5 Inhib 0.5 uM %” value is on record as 57% and the “SSTR5 Inhib 10 uM %” value was 90%.

`COC[C@H]1OC(OCCc2ccccc2)[C@H](NC(=O)CCCN)[C@@H](OCc2ccc(-c3ccccc3)cc2)[C@@H]1O` (stereo partly drawn) [Compound 65]: the “SSTR5 Inhib 0.5 uM %” value was 61% and the “SSTR5 Inhib 10 uM %” value was 90%.

Turning to `CSC1O[C@H](COCc2ccc(-c3ccccc3)cc2)[C@@H](O)[C@@H](OCc2ccc3ccccc3c2)[C@H]1NC(=O)CCN` (stereo partly drawn) [Compound 66], the “SSTR5 Inhib 0.5 uM %” value amounted to 61% and the “SSTR5 Inhib 10 uM %” value was 89%.

Take `CO[C@H]1[C@H](O)[C@@H](COCc2ccc(-c3ccccc3)cc2)OC(OCc2ccc(Cl)cc2)[C@@H]1NC(=O)CCCNC(=N)N` (stereo partly drawn) [Compound 67]: the “SSTR5 Inhib 0.5 uM %” value turned out to be 48% and the “SSTR5 Inhib 10 uM %” value is reported as 89%.

As for `COC[C@H]1OC(OCc2ccc3ccccc3c2)[C@H](NC(=O)CCCN)[C@@H](OCc2ccccc2)[C@@H]1O` (stereo partly drawn) [Compound 68], the “SSTR5 Inhib 0.5 uM %” value came out at 46% and the “SSTR5 Inhib 10 uM %” value is 89%.

For the compound `CO[C@@H]1[C@H](O)[C@@H](COCc2ccc3ccccc3c2)OC(OCc2ccc(Cl)cc2)[C@@H]1NC(=O)C1CCCN(C(=N)N)C1` (stereo partly drawn) [Compound 69], the “SSTR5 Inhib 0.5 uM %” value was 67% and the “SSTR5 Inhib 10 uM %” value is 89%.

In the case of `CO[C@H]1[C@H](O)[C@@H](COCc2ccc(-c3ccccc3)cc2)OC(OCc2ccc(-c3ccccc3)cc2)[C@@H]1NC(=O)CNC(=N)N` (stereo partly drawn) [Compound 70], the “SSTR5 Inhib 0.5 uM %” value was 18% and the “SSTR5 Inhib 10 uM %” value is given as 89%.

In the case of `COC[C@H]1OC(OCc2ccc(Cl)cc2)[C@H](NC(=O)CCNC(=N)N)[C@H](OCc2ccc(Cl)cc2)[C@@H]1O` (stereo partly drawn) [Compound 71], the “SSTR5 Inhib 0.5 uM %” value came to 49% and the “SSTR5 Inhib 10 uM %” value was determined as 89%.

As to `CSC1O[C@H](COCc2ccccc2)[C@@H](O)[C@@H](OCc2ccc3ccccc3c2)[C@H]1NC(=O)CNC(=N)N` (stereo partly drawn) [Compound 72], the “SSTR5 Inhib 0.5 uM %” value turned out to be 51% and the “SSTR5 Inhib 10 uM %” value was determined as 89%.

Turning to `COC[C@H]1OC(OCCc2ccccc2)[C@H](NC(=O)CCCN)[C@@H](OCc2ccc3ccccc3c2)[C@@H]1O` (stereo partly drawn) [Compound 73], the “SSTR5 Inhib 0.5 uM %” value is 56% and the “SSTR5 Inhib 10 uM %” value came out at 89%.

As to `COC[C@H]1OC(OCc2ccc(-c3ccccc3)cc2)[C@H](NC(=O)CCCN)[C@@H](OCc2ccc(Cl)cc2)[C@@H]1O` (stereo partly drawn) [Compound 74], the “SSTR5 Inhib 0.5 uM %” value is listed as 64% and the “SSTR5 Inhib 10 uM %” value is listed as 89%.

Regarding `COC[C@H]1OC(OCc2ccc3ccccc3c2)[C@H](NC(=O)CCCNC(=N)N)[C@@H](OCc2ccc3ccccc3c2)[C@@H]1O` (stereo partly drawn) [Compound 75], the “SSTR5 Inhib 0.5 uM %” value stood at 61% and the “SSTR5 Inhib 10 uM %” value worked out at 89%.

As to `COC[C@H]1OC(OCc2ccccc2)[C@H](NC(=O)CCCN)[C@H](OCc2ccc3ccccc3c2)[C@@H]1O` (stereo partly drawn) [Compound 76], the “SSTR5 Inhib 0.5 uM %” value is on record as 51% and the “SSTR5 Inhib 10 uM %” value was 88%.

In the case of `COC[C@H]1OC(OCc2ccc(-c3ccccc3)cc2)[C@H](NC(=O)CCCNC(=N)N)[C@@H](OCc2ccc(-c3ccccc3)cc2)[C@@H]1O` (stereo partly drawn) [Compound 77], the “SSTR5 Inhib 0.5 uM %” value is 50% and the “SSTR5 Inhib 10 uM %” value worked out at 88%.
